Source: publication PMC12562640, “Investigating Amphoteric 3,4′-Biscoumarin-Based ortho-[(Dialkylamino)methyl]phenols as Dual MAO and ChE Inhibitors” (International Journal of Molecular Sciences, 2025)
Converted amounts (≈) assume the structure as drawn. “And” between values parts separate entries of the source, which are not always exact repeats. Equal values may be shown once. “Also recorded” adds a separate entry of the source. Read-outs that look alike come from different tables or passages of the source.

Key:
[1] = molecular target: T1, human huMAO-B (Homo sapiens, UniProt P27338); experiment: biochemical; format: biochemical
T1 construct: purchased Sigma Aldrich; host or cells: insect cells infected with baculovirus (microsomes)
T1 sequence (P27338 1-520): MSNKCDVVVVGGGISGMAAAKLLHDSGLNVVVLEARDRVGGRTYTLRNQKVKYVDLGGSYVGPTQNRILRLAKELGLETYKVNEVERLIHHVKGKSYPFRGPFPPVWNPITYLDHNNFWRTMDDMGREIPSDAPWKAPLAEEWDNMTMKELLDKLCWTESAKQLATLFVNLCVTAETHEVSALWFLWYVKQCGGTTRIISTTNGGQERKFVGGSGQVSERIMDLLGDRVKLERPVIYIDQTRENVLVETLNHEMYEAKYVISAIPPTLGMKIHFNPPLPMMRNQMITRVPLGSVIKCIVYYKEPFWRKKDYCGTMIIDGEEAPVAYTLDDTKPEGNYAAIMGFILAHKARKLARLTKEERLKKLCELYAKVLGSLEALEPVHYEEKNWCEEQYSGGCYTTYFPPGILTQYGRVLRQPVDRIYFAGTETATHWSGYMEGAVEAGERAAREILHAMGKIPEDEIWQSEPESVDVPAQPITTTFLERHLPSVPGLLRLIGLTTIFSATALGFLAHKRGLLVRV
Experimental: (§1) The inhibition assays of human monoamine oxidases were conducted using a fluorescence-based method with kynuramine as a non-selective substrate for each isoform, MAO-A/B [44, 45, 46]. Recombinant human MAO-A and MAO-B (microsomes from insect cells infected with baculovirus; Sigma Aldrich, St. Louis, MO, USA) (Merk Life Science S.r.l., Milan, Italy) were used. The measurements were performed in triplicate in black round-bottom polystyrene 96-well plates (Greiner Bio-One, Kremsmünster, Austria). […] In the MAO inhibition assays, all compounds were initially screened at a concentration of 10 µM. Each of them was preincubated at 37 °C for 20 min with 50 µM kynuramine in a phosphate buffer (PBS, 0.1 M, pH 8.0), adjusted to 0.39 osmolarity with KCl. After adding recombinant human MAO-A/B (250 U/mg and 59 U/mg, respectively) and incubating for another 30 min, NaOH was added. The fluorescence was measured at excitation/emission wavelengths of 310/400 nm. […] The IC50 is reported as the mean ± SD of three independent experiments, each performed in duplicate.

[2] = molecular target: T2, human MAO-A (Homo sapiens, UniProt P21397); experiment: biochemical; format: biochemical
T2 construct: purchased Sigma Aldrich; host or cells: insect cells infected with baculovirus (microsomes)
T2 sequence (P21397 1-527): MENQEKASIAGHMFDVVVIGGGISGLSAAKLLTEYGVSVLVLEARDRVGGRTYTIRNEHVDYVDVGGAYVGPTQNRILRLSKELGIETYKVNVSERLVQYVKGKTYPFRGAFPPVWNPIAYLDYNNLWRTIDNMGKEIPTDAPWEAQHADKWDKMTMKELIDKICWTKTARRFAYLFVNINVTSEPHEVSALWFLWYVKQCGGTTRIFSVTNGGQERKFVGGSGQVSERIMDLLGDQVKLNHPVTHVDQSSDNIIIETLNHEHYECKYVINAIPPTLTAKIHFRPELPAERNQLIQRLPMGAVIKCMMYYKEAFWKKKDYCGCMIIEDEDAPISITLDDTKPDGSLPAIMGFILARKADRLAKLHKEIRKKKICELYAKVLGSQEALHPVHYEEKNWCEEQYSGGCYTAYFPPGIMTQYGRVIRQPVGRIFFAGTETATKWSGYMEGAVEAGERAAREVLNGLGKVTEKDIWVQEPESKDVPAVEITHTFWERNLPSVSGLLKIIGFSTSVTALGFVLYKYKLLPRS
Experimental: as §1

[3] = Lipophilicity by RP-HPLC (log k'w); format: physicochemical; details: C18, extrapolated to 100% water mobile phase
Experimental: The lipophilicity of the five compounds in Table 4 was assessed by calculation and experimental approaches. As a calculated lipophilicity parameter (log Pcalc), we took from the SwissADME free website (http://www.swissadme.ch) the ‘Consensus Log Po/w’, that is, the arithmetic mean of octanol/water log Ps calculated by five methods (iLOGP, XLOGP3, WLOGP, MLOGP, and SILICOS-IT).
The lipophilicity parameters were determined by an RP-HPLC technique. In short, methanolic solutions of the examined compounds (1 mg·mL^−1) were analyzed by the Agilent 1260 infinite HPLC system (Agilent Technologies, Milan, Italy) equipped with a diode array detector (DAD), using a Phenomenex C18-column (Kinetex 5 μ, 100 Å, 150 × 3 mm) as the stationary phase and MeOH/water buffer mobile phases with different v/v composition (i.e., mobile phases containing 0.05 increments of MeOH volume fractions in 10 mM ammonium formate buffer at pH 4.5; φMeOH ranging between 0.70 and 0.20). The chromatographic measurements were carried out at 25 ± 1 °C, flow rate of 0.5 mL·min^−1, and detection at λ 330 nm. The log of capacity factors of each compound at different mobile phase compositions was calculated (log k′ = log (tR − t0)/t0, where tR represents the retention time of the solute and t0 is the column dead time). For each compound, the equation of the linear relationship between log k′ and φMeOH (R^2 > 0.991) on at least five datapoints, each from duplicate, was derived by regression analysis and the intercept at the y-axis (i.e., φMeOH = 0) calculated as the lipophilicity parameter log k′w.

[4] = Kinetic solubility in aqueous buffers (RP-HPLC); format: physicochemical; details: for solubility at 2 h: PBS buffer, 25 °C, pH 7.4, aqueous buffer, kinetic from dmso stock, read-out: Solubility Exp.; for experimental solubility in PBS pH 7.4, times higher than calculated with the ESOL model: PBS pH 7.4 vs ESOL
Experimental: Water solubility and lipophilicity parameters were measured following previously reported methods. […] The mixture was then separated by centrifugation at 2500 rpm for 3 min. Immediately after filtration, 100 µL of the filtrate was mixed with an equal volume of a 1:1 (v/v) DMSO and PBS (50 mM, pH 7.4, KCl 0.15 M) or HCl (0.01 M, pH 2, KCl 0.15 M) solution to prevent precipitation from the saturated solution and subsequently analyzed by HPLC. The peak area was compared to a calibration curve of the tested compound in MeOH. The analytical parameters were set as follows. Mobile phase: MeOH/water pH 2.8 (acetic acid 0.5% v/v) at different percentages depending on the retention time of each test compound; stationary phase: Phenomenex, Kinetex 5 µ, C8, (150 × 3 mm); flux: […]; injection: 2 µL; λ 330 nm. The analyses were performed on the Agilent HPLC 1260 Infinity Series Integrated System (Agilent Technologies, Milan, Italy).

[5] = molecular target: T3, electric eel eeAChE (Electrophorus electricus, UniProt O42275); experiment: biochemical; details: for IC50: mean ± SD of three independent determinations, ~10 means 50–60% inhibition at 10 µM
T3 construct: Acetylcholinesterase from electric eel and butyrylcholinesterase from equine serum (Sigma Aldrich) were employed; purchased Sigma Aldrich; host or cells: electric eel (natural source)

[6] = molecular target: T4, horse serum eqBChE (Equus caballus, UniProt P81908); experiment: biochemical; format: biochemical; details: at 10 µM concentration
T4 construct: Acetylcholinesterase from electric eel and butyrylcholinesterase from equine serum (Sigma Aldrich) were employed; purchased Sigma Aldrich; host or cells: equine serum
Experimental: (§2) Cholinesterase inhibition assays were carried out using the Ellman spectrophotometric method, modified for a 96-well plate format. Acetylcholinesterase from electric eel and butyrylcholinesterase from equine serum (Sigma Aldrich) were employed. The measurements were performed in triplicate using clear, flat-bottom polystyrene plates (Greiner Bio-One).

[7] = molecular target: human huAChE (Homo sapiens, UniProt P22303); experiment: biochemical; format: biochemical; details: for inhibition at 10 µM: at 10 µM concentration, read-out: huAChE inhibition class
Experimental: The inhibition of human huAChE was also evaluated for five compounds.
as §2

[8] = molecular target: T2, human MAO-A; experiment: Inhibition kinetics and time course of MAO-A inhibition; format: biochemical
Excerpt: For the sake of clarity, the position of the Mannich base (-CH2NR2) on the main coumarin core will be indicated as C8, whereas the positions of Cl or Br and OMe on the 4-coumarin-3-yl moiety will be indicated as C6′ and C8′.
Time courses of MAO-A inhibition by 2b and 5b, using a spectrophotometric assay measuring the absorbance of 4-
(1 picture or pasted object on this page, not shown here)

[9] = Hydrolytic stability in aqueous buffers; details: 0.01 M HCl (pH 2.0) and 0.05 M PBS (pH 7.4), 37 ± 1 °C, 1 h, 100 μM
Experimental: Sample solutions at 100 μM (DMSO as the cosolvent, 1% v/v) were incubated at 37 ± 1 °C for 1 h, following shaking of the solution on an orbital shaker at 250 rpm and monitoring by RP-HPLC.

[10] = PBS (50 mM, pH 7.4, 0.15 M KCl) at 25 ± 1 °C, n = 3
[11] = read-out: eqBChE inhibition class
[12] = mean ± SD of three independent determinations, ~10 means 50–60% inhibition at 10 µM
[13] = at 10 µM concentration, mean ± SD

T4 sequence (P81908 whole entry): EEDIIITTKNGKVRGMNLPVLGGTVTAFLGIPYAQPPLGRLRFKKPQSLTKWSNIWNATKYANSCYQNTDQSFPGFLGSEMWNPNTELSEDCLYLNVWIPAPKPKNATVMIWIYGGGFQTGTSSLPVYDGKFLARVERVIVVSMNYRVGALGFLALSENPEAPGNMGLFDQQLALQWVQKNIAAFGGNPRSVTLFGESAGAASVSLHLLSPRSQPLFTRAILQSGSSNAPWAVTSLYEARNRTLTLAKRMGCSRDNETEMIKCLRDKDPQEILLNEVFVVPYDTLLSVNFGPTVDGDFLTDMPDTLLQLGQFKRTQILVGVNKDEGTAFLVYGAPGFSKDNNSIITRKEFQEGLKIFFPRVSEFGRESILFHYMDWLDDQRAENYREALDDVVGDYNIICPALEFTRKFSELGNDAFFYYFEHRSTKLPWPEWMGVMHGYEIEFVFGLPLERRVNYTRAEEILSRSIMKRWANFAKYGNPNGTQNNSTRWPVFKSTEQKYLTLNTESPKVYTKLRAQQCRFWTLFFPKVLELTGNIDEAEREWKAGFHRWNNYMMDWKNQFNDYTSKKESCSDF
T3 sequence (O42275 24-633): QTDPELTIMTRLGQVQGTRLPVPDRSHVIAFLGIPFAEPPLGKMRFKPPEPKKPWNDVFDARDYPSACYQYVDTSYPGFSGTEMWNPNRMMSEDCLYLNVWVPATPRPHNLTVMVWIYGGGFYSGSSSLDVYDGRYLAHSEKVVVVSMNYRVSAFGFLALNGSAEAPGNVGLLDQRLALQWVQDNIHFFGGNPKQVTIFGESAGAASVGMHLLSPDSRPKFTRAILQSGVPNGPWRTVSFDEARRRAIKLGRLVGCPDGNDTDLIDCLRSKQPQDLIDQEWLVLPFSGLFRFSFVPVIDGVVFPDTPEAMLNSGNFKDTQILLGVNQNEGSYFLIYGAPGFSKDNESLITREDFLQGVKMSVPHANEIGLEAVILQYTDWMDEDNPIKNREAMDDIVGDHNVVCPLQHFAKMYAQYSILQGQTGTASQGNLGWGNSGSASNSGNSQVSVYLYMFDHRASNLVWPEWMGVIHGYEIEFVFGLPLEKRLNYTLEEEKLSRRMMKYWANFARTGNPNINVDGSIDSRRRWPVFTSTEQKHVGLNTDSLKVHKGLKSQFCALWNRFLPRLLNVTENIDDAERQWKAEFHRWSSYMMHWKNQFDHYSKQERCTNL
human huAChE, sequence (P22303 32-614): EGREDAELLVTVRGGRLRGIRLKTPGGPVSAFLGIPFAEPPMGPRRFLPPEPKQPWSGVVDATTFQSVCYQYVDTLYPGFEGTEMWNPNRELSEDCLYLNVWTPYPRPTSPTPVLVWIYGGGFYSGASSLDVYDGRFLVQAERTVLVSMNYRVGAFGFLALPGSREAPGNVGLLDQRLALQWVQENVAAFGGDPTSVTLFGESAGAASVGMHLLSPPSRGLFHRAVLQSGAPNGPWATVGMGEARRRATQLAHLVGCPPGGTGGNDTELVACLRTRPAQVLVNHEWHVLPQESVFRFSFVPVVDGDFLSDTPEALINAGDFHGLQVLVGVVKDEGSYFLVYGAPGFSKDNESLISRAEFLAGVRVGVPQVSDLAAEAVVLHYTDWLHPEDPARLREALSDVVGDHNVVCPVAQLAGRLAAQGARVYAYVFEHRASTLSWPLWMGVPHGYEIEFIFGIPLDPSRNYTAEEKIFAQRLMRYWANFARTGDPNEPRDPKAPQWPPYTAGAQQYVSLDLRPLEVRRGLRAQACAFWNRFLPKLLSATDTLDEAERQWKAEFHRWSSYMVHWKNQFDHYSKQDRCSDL

SMILES | IC50 [1] | IC50 [2] | Log k’w (polycratic capacity factor) [3] | solubility at 2 h [4, 10] | IC50 [5] | inhibition at 10 µM [6, 11] | inhibition at 10 µM [7] | huMAO-A IC50 [2, 12] | hydrolytic stability [9] | experimental solubility in PBS pH 7.4, times higher than calculated with the ESOL model [4] | other results
CN(C)Cc1c(O)ccc2c(-c3cc4cc(Cl)ccc4oc3=O)cc(=O)oc12 [Compound 2b, 8-((dimethylamino)methyl)-4-(6-chloro-2-oxo-2H-chromen-3-yl)-7-hydroxy-2H-chromen-2-one] | ~10 µM | 1490 ± 490 nM | 2.45 | 147 µM (≈ 58.5 µg/mL) | ~10 µM | < 10% | < 10% |  |  |  | mode of inhibition of MAO-A ([8]; Michaelis–Menten and Lineweaver–Burk plots): competitive; Ki ([8]; human MAO-A, competitive inhibition, read-out: inhibition constant (Ki) MAO-A): 272 nM; reversibility of MAO-A inhibition ([8]; time course, absorbance of 4-hydroxyquinoline at 316 nm, inhibitor close to IC50): reversible
CN(C)Cc1c(O)ccc2c(-c3cc4cc(Br)ccc4oc3=O)cc(=O)oc12 [Compound 2c, 8-((dimethylamino)methyl)-4-(6-bromo-2-oxo-2H-chromen-3-yl)-7-hydroxy-2H-chromen-2-one] | ~10 µM | 2230 ± 220 nM | 2.65 | 141 µM (≈ 62.4 µg/mL) |  | < 10% | < 10% | single-digit micromolar | stable over 1 h | thirteen | inhibition at 10 µM [5, 13]: 20%
CCN(CC)Cc1c(O)ccc2c(-c3cc4cc(Br)ccc4oc3=O)cc(=O)oc12 [Compound 3c, 8-((diethylamino)methyl)-4-(6-bromo-2-oxo-2H-chromen-3-yl)-7-hydroxy-2H-chromen-2-one] |  | 3040 ± 1370 nM | 2.89 |  | < 10 µM and 1.56 µM |  |  | single-digit micromolar |  | fifty; also recorded: fiftyfold | inhibition at 10 µM [1, 13]: 42%; Solubility Exp. [4, 10]: 181 µM (≈ 85.1 µg/mL); water solubility relative to 2c ([4]; at pH 7.4): 1.3 fold; inhibition at 10 µM ([6]; mean ± SD, read-out: eqBChE % inhibition): 37%; IC50 [7]: 4.27 ± 0.58 µM
CCCCN(C)Cc1c(O)ccc2c(-c3cc4cc(Br)ccc4oc3=O)cc(=O)oc12 [Compound 5c] |  |  |  |  |  |  |  | single-digit micromolar | stable over 1 h |  | IC50 [1, 12]: ~10 µM; IC50 [2, 12]: 2520 ± 700 nM; eqBChE % inhibition ([6]; mean ± SD): [25 ± 11] %
